Results: US20250376458A1, “COMPOUNDS AND METHODS FOR YAP/TEAD MODULATION AND INDICATIONS THEREFOR” (OPNA BIO SA, priority 2023, published 2025)
Where two headings read alike, the source gives them in different places.

Tested on: TEAD-dependent transcription
Experiment: TEAD-dependent transcription cell-based luciferase reporter assay (MSTO-211H+12XGTIIC)
Design: species or system human
Details: MSTO-211H+12XGTIIC cell line, 24 hours compound incubation, luminescence normalized to cell viability fluorescence signal, read-out: MSTO-211H GMean IC50 (uM) Cell Assay Reporter Cell Variant: TEAD
Source text: Determine Inhibitor Activity Against TEAD-Dependent Transcription in a Cell-Based Reporter Assay
The human mesothelioma cell line MSTO-211H was stably transfected with a pGL4.21 plasmid containing a synthetic promoter with 12 copies of the GTIIC TEAD response element that drives the expression of a luciferase reporter gene i using Lipofectamine transfection reagent (Thermo Fisher). Transfected cells were selected using puromycin and single cell clones expressing this construct (referred to as MSTO-211H+12XGTIIC) were generated by limiting dilution. MSTO-211H cells was characterized by genetic alterations in key components of the Hippo pathway^2, resulting in up-regulation of YAP/TEAD-mediated transcription. […] To evaluate TEAD inhibitors, the MSTO-211H+12XGTIIC cell line was seeded in a 96-well plate in 50 μL of culture media at 1×10^4 cells per well and incubated at 37° C. overnight. Serial dilutions of compounds (in total volume of 50 μL of culture media) were added to the cells and incubated at 37° C. for 24 hours. Each plate included cells treated with DMSO as high controls and cells treated with 20 μM of the reference compound K-975 (a known TEAD inhibitor)^3 as low controls. Cell viability was assayed by the addition of 25 μL of CellTiter-Fluor reagent (Promega) followed by a 30-minute incubation at 37° C. and quantification of the fluorescence signal (Ex400/Em505). Subsequently, luciferase expression was assayed by the addition of 25 μL of ONE-Glo reagent (Promega) followed by a 10-minute incubation at room temperature and quantification of the luminescence signal. The luminescence signal was normalized to the fluorescence signal to correct for any loss in cell viability over the 24-hour compound incubation period. The percentage of inhibition of normalized luminescence signal, indicative of compound-mediated inhibition of TEAD-dependent transcription, at individual compound concentrations relative to high and low controls was calculated. The data were analyzed by using nonlinear regression to generate IC50 values for individual compounds.

Structure (SMILES)	IC50 (Homo sapiens, MSTO-211H, 24 h)	IC50
CS(=O)(=O)c1nc(C(=O)N2CCc3c(cccc3Nc3ccc(C(F)(F)F)cc3F)C2)c[nH]1 [O-0010, (5-((2-fluoro-4-(trifluoromethyl)phenyl)amino)-3,4-dihydroisoquinolin-2(1H)-yl)(2-(methylsulfonyl)-1H-imidazol-4-yl)methanone]	0.001 to 10 µM	–
CS(=O)(=O)c1ncc(C(=O)N2CCc3ccc(Oc4ccc(C(F)(F)F)c(F)c4)cc3C2)[nH]1 [O-0123, (7-(3-fluoro-4-(trifluoromethyl)phenoxy)-3,4-dihydroisoquinolin-2(1H)-yl)(2-(methylsulfonyl)-1H-imidazol-5-yl)methanone]	10 to 100 µM	–
CCCS(=O)(=O)c1nc(C(=O)N2CCc3cc(Oc4ccc(C(F)(F)F)cc4)ccc3C2)c[nH]1 [O-0081, (2-(propylsulfonyl)-1H-imidazol-4-yl)(6-(4-(trifluoromethyl)phenoxy)-3,4-dihydroisoquinolin-2(1H)-yl)methanone]	0.001 to 10 µM	–
CCCS(=O)(=O)c1nc(C(=O)N2CCc3c(cccc3Nc3ccc(C(F)(F)F)c(F)c3)C2)c[nH]1 [O-0026, (5-((3-fluoro-4-(trifluoromethyl)phenyl)amino)-3,4-dihydroisoquinolin-2(1H)-yl)(2-(propylsulfonyl)-1H-imidazol-4-yl)methanone]	0.001 to 10 µM	–
CS(=O)(=O)c1nc(C(=O)N2CCc3c(cccc3Oc3ccc(C(F)(F)F)cc3F)C2)c[nH]1 [O-0118, (5-(2-fluoro-4-(trifluoromethyl)phenoxy)-3,4-dihydroisoquinolin-2(1H)-yl)(2-(methylsulfonyl)-1H-imidazol-4-yl)methanone]	0.001 to 10 µM	–
CCS(=O)(=O)c1nc(C(=O)N2CCc3c(ncnc3Oc3ccc(C(F)(F)F)cc3F)C2)c[nH]1 [O-0129, (2-(ethylsulfonyl)-1H-imidazol-4-yl)(4-(2-fluoro-4-(trifluoromethyl)phenoxy)-5,8-dihydropyrido[3,4-d]pyrimidin-7(6H)-yl)methanone]	–	10 to 100 µM
CCS(=O)(=O)c1nc(C(=O)N2CCc3c(ncnc3Oc3ccc(C(F)(F)F)cc3)C2)c[nH]1 [O-0130, (2-(ethylsulfonyl)-1H-imidazol-4-yl)(4-(4-(trifluoromethyl)phenoxy)-5,8-dihydropyrido[3,4-d]pyrimidin-7(6H)-yl)methanone]	10 to 100 µM	–
CC(C)S(=O)(=O)c1nc(C(=O)N2CCc3c(cccc3Nc3ccc(C(F)(F)F)c(F)c3)C2)c[nH]1 [O-0027, (5-((3-fluoro-4-(trifluoromethyl)phenyl)amino)-3,4-dihydroisoquinolin-2(1H)-yl)(2-(isopropylsulfonyl)-1H-imidazol-4-yl)methanone]	0.001 to 10 µM	–
Cn1c(C(=O)N2CCc3c(cccc3Nc3ccc(C(F)(F)F)cn3)C2)cnc1S(C)(=O)=O [O-0006, (1-methyl-2-(methylsulfonyl)-1H-imidazol-5-yl)(5-((5-(trifluoromethyl)pyridin-2-yl)amino)-3,4-dihydroisoquinolin-2(1H)-yl)methanone]	0.001 to 10 µM	–
O=C(c1c[nH]c(S(=O)(=O)C2CCC2)n1)N1CCc2c(cccc2Oc2ccc(C(F)(F)F)cc2)C1 [O-0125, (2-(cyclobutylsulfonyl)-1H-imidazol-4-yl)(5-(4-(trifluoromethyl)phenoxy)-3,4-dihydroisoquinolin-2(1H)-yl)methanone]	0.001 to 10 µM	–
Cn1cc(C(=O)N2CCc3c(cccc3Nc3ccc(C(F)(F)F)cc3)C2)nc1S(C)(=O)=O [O-0007, (1-methyl-2-(methylsulfonyl)-1H-imidazol-4-yl)(5-((4-(trifluoromethyl)phenyl)amino)-3,4-dihydroisoquinolin-2(1H)-yl)methanone]	0.001 to 10 µM	–
CS(=O)(=O)c1nc(C(=O)N2CCc3c(ncnc3Oc3ccc(C(F)(F)F)cc3)C2)c[nH]1 [O-0119, (2-(methylsulfonyl)-1H-imidazol-4-yl)(4-(4-(trifluoromethyl)phenoxy)-5,8-dihydropyrido[3,4-d]pyrimidin-7(6H)-yl)methanone]	–	0.001 to 10 µM
CS(=O)(=O)c1nc(C(=O)N2CCc3cc(Oc4ccc(C(F)(F)F)c(F)c4)cnc3C2)c[nH]1 [O-0077, (3-(3-fluoro-4-(trifluoromethyl)phenoxy)-5,8-dihydro-1,7-naphthyridin-7(6H)-yl)(2-(methylsulfonyl)-1H-imidazol-4-yl)methanone]	0.001 to 10 µM	–
CS(=O)(=O)c1nc(C(=O)N2CCc3ccc(Nc4ccc(C(F)(F)F)c(F)c4)cc3C2)c[nH]1 [O-0018, (7-((3-fluoro-4-(trifluoromethyl)phenyl)amino)-3,4-dihydroisoquinolin-2(1H)-yl)(2-(methylsulfonyl)-1H-imidazol-4-yl)methanone]	–	10 to 100 µM
CCS(=O)(=O)c1nc(C(=O)N2CCc3c(ncnc3Oc3ccc(C(F)(F)F)c(F)c3)C2)c[nH]1 [O-0113, (2-(ethylsulfonyl)-1H-imidazol-4-yl)(4-(3-fluoro-4-(trifluoromethyl)phenoxy)-5,8-dihydropyrido[3,4-d]pyrimidin-7(6H)-yl)methanone]	0.001 to 10 µM	–
CS(=O)(=O)c1nc(C(=O)N2CCc3c(cccc3Oc3ccc(C(F)(F)F)c(F)c3)C2)c[nH]1 [O-0114, (5-(3-fluoro-4-(trifluoromethyl)phenoxy)-3,4-dihydroisoquinolin-2(1H)-yl)(2-(methylsulfonyl)-1H-imidazol-4-yl)methanone]	0.001 to 10 µM	–
CS(=O)(=O)c1nc(C(=O)N2CCc3c(ncnc3Oc3ccc(C(F)(F)F)cc3)C2)c[nH]1 [O-0131, (2-(methylsulfonyl)-1H-imidazol-4-yl)(4-(4-(trifluoromethyl)phenoxy)-5,8-dihydropyrido[3,4-d]pyrimidin-7(6H)-yl)methanone]	–	10 to 100 µM
CCS(=O)(=O)c1nc(C(=O)N2CCc3c(cccc3Oc3ccc(C(F)(F)F)cc3)C2)c[nH]1 [O-0011, (2-(ethylsulfonyl)-1H-imidazol-4-yl)(5-(4-(trifluoromethyl)phenoxy)-3,4-dihydroisoquinolin-2(1H)-yl)methanone]	10 to 100 µM	–
CCS(=O)(=O)c1nc(C(=O)N2CCc3c(cccc3Nc3ccc(C(F)(F)F)cc3)C2)c[nH]1 [O-0012, (2-(ethylsulfonyl)-1H-imidazol-4-yl)(5-((4-(trifluoromethyl)phenyl)amino)-3,4-dihydroisoquinolin-2(1H)-yl)methanone]	> 100 µM	–
CS(=O)(=O)c1nc(C(=O)N2CCc3ccc(Nc4ccc(C(F)(F)F)cc4)cc3C2)c[nH]1 [O-0013, (2-(methylsulfonyl)-1H-imidazol-4-yl)(7-((4-(trifluoromethyl)phenyl)amino)-3,4-dihydroisoquinolin-2(1H)-yl)methanone]	> 100 µM	–
CS(=O)(=O)c1nc(C(=O)N2CCc3ccc(Nc4ccc(C(F)(F)F)c(F)c4)cc3C2)c[nH]1 [O-0121, (7-((3-fluoro-4-(trifluoromethyl)phenyl)amino)-3,4-dihydroisoquinolin-2(1H)-yl)(2-(methylsulfonyl)-1H-imidazol-4-yl)methanone]	–	0.001 to 10 µM
CS(=O)(=O)c1nc(C(=O)N2CCc3c(cccc3Nc3ccc(C(F)(F)F)cn3)C2)c[nH]1 [O-0003, (2-(methylsulfonyl)-1H-imidazol-4-yl)(5-((5-(trifluoromethyl)pyridin-2-yl)amino)-3,4-dihydroisoquinolin-2(1H)-yl)methanone]	0.001 to 10 µM	–
O=C(c1c[nH]c(S(=O)(=O)C2CCC2)n1)N1CCc2c(cccc2Nc2ccc(C(F)(F)F)cc2)C1 [O-0126, (2-(cyclobutylsulfonyl)-1H-imidazol-4-yl)(5-((4-(trifluoromethyl)phenyl)amino)-3,4-dihydroisoquinolin-2(1H)-yl)methanone]	0.001 to 10 µM	–
CNS(=O)(=O)c1nc(C(=O)N2CCc3cc(Oc4ccc(C(F)(F)F)cc4)ccc3C2)c[nH]1 [O-0111, N-methyl-4-(6-(4-(trifluoromethyl)phenoxy)-1,2,3,4-tetrahydroisoquinoline-2-carbonyl)-1H-imidazole-2-sulfonamide]	0.001 to 10 µM	–
CS(=O)(=O)c1nc(C(=O)N2CCc3c(cccc3NC3CCC(F)(F)CC3)C2)c[nH]1 [O-0124, (5-((4,4-difluorocyclohexyl)amino)-3,4-dihydroisoquinolin-2(1H)-yl)(2-(methylsulfonyl)-1H-imidazol-4-yl)methanone]	> 100 µM	–
CS(=O)(=O)c1nc(C(=O)N2CCc3c(ncnc3Oc3ccc(C(F)(F)F)c(F)c3)C2)c[nH]1 [O-0128, (4-(3-fluoro-4-(trifluoromethyl)phenoxy)-5,8-dihydropyrido[3,4-d]pyrimidin-7(6H)-yl)(2-(methylsulfonyl)-1H-imidazol-4-yl)methanone]	–	10 to 100 µM
CS(=O)(=O)c1nc(C(=O)N2CCc3c(ncnc3Oc3ccc(C(F)(F)F)c(F)c3)C2)c[nH]1 [O-0115, (4-(3-fluoro-4-(trifluoromethyl)phenoxy)-5,8-dihydropyrido[3,4-d]pyrimidin-7(6H)-yl)(2-(methylsulfonyl)-1H-imidazol-4-yl)methanone]	–	0.001 to 10 µM
